From patent publication US11352340B2, “Pyridine and pyridimine compounds as PI3K-gamma inhibitors” (Incyte Corporation, priority 2016, dated 2022)
Where a name gives a salt, the structure may show the parent alone.

What was measured:
[1] = biological target: PI3Kγ (p110γ) Recombinant Human Protein (Homo sapiens (Human), UniProt P48736); test: PI3K-γ Scintillation Proximity Assay; type: biochemical; conditions: read-out: PI3K-gamma SPA IC50
In short: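 Radiometric SPA: reaction at room temperature for 120 min using 2 μM ATP with [γ-33P]ATP tracer, 20 μM PIP2 substrate and 13 nM human PI3Kγ (MOPS pH 6.7, MgCl2, DTT, CHAPS; 2% DMSO). EDTA quench with WGA beads, scintillation count, and IC50 fit of percent-of-control activity.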

[2] = tested on: Phosphorylated Ribosomal Protein S6 (RPS6) in THP-1 cells; test: THP-1 RPS6 ELISA Assay; type: cell-based, Human; conditions: Homo sapiens, MCP-1 stimulated, phospho-RPS6 ELISA, read-out: THP p-RPS6 ELISA IC50
Description: Example A. THP-1 RPS6 ELISA Assay
To measure the Phosphorylated Ribosomal Protein S6 (RPS6) in cell lysates, THP-1 cells (Human Acute Monocytic Leukemia) are purchased from ATCC (Manassas, Va.) and maintained in RPMI with 10% FBS (Gibco/Life Technologies, Carlsbad, Calif.). For the assay, THP-1 cells are serum starved overnight in RPMI, then plated in RPMI (2×10^5 cells/well in 90 μL) into 96-well flat-bottom tissue culture treated plates (Corning, Corning, N.Y.), in the presence or absence of a concentration range of test compounds. Covered plates are incubated for 2 hours at 37° C., 5% CO2 then treated with or without 10 nM MCP-1 (MYBioSource, San Diego, Calif.) for 15 minutes at 37° C., 5% CO2. Plates are centrifuged at 1600 RPM and supernatants are removed. Cells are lysed in Lysis Buffer (Cell Signaling, Danvers, Mass.) with Protease Inhibitor (Calbiochem/EMD, Germany), PMSF (Sigma, St Louis Mo.), HALTS (Thermo Fisher, Rockford, Ill.) for 30 min on wet ice. Cell lysates are frozen at −80° C. before testing. The lysates are tested in the Human/Mouse/Rat Phospho-RPS6 ELISA (R&D Systems, Inc. Minn, Minn.). The plate is measured using a microplate reader (SpectraMax M5—Molecular Devices, LLC Sunnyvale, Calif.) set to 450 nm with a wavelength correction of 540. IC50 determination is performed by fitting the curve of inhibitor percent inhibition versus the log of the inhibitor concentration using the GraphPad Prism 5.0 software.

[3] = biological target: PI3Kδ (p110δ/p85α) Recombinant Human Protein (Homo sapiens (Human), UniProt O00329); test: PI3Kδ Scintillation Proximity Assay; type: biochemical; conditions: read-out: PI3K-delta SPA IC50
PI3Kδ (p110δ/p85α) Recombinant Human Protein, sequence (O00329 whole entry): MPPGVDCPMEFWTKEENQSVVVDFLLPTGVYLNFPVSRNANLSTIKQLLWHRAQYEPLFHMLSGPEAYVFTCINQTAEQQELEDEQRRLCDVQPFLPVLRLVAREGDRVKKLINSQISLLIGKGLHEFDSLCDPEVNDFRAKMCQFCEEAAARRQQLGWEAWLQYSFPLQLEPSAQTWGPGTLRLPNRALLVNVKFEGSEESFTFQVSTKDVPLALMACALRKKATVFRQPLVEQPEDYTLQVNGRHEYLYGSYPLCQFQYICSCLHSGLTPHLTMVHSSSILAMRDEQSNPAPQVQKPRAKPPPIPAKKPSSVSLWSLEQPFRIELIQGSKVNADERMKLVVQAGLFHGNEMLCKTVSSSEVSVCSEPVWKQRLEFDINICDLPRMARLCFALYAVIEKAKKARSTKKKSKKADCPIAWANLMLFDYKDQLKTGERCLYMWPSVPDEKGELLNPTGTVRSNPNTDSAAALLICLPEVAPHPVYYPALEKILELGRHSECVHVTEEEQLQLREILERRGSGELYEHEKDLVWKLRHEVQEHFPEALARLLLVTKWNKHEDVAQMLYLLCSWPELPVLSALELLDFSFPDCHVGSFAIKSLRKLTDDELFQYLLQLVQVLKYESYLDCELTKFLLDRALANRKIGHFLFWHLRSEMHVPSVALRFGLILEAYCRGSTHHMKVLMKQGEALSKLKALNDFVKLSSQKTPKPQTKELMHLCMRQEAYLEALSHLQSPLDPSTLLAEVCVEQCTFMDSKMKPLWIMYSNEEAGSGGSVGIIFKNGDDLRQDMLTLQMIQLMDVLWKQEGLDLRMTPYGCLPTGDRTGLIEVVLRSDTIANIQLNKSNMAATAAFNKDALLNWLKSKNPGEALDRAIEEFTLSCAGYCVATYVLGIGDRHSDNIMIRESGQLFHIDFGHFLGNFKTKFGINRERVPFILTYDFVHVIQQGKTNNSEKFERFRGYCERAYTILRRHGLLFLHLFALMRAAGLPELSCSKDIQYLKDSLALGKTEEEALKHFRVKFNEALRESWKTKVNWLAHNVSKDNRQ
PI3Kδ (p110δ/p85α) Recombinant Human Protein, sequence (P27986 whole entry partner): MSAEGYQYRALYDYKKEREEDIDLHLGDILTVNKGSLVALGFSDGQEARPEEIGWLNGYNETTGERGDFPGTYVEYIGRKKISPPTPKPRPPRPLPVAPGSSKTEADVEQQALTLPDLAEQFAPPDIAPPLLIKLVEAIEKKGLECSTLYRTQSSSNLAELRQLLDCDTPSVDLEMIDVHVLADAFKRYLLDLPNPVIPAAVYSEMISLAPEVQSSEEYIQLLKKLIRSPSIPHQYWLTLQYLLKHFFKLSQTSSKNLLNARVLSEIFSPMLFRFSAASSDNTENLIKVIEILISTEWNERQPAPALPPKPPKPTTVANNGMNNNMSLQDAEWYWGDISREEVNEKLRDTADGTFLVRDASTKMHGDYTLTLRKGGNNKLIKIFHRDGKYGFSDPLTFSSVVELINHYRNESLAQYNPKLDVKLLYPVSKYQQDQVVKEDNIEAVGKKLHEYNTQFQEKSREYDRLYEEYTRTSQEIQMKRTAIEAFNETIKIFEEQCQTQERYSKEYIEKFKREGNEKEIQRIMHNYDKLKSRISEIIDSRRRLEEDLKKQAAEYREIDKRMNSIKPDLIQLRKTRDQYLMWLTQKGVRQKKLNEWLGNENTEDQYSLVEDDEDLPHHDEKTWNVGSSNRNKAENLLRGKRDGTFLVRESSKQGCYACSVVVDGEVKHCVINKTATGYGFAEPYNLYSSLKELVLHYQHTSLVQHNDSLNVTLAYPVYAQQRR
In short: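 IC50 was fitted to percent solvent-control activity from SPA scintillation counts after WGA bead capture of 33P-labelled lipid product. Reaction: 120 min, room temperature, 3.4 nM p110δ/p85α, 20 μM PIP2, 2 μM ATP with tracer, MOPS pH 6.7 buffer containing MgCl2, DTT, CHAPS, 2% DMSO.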

PI3Kγ (p110γ) Recombinant Human Protein, sequence (P48736 whole entry): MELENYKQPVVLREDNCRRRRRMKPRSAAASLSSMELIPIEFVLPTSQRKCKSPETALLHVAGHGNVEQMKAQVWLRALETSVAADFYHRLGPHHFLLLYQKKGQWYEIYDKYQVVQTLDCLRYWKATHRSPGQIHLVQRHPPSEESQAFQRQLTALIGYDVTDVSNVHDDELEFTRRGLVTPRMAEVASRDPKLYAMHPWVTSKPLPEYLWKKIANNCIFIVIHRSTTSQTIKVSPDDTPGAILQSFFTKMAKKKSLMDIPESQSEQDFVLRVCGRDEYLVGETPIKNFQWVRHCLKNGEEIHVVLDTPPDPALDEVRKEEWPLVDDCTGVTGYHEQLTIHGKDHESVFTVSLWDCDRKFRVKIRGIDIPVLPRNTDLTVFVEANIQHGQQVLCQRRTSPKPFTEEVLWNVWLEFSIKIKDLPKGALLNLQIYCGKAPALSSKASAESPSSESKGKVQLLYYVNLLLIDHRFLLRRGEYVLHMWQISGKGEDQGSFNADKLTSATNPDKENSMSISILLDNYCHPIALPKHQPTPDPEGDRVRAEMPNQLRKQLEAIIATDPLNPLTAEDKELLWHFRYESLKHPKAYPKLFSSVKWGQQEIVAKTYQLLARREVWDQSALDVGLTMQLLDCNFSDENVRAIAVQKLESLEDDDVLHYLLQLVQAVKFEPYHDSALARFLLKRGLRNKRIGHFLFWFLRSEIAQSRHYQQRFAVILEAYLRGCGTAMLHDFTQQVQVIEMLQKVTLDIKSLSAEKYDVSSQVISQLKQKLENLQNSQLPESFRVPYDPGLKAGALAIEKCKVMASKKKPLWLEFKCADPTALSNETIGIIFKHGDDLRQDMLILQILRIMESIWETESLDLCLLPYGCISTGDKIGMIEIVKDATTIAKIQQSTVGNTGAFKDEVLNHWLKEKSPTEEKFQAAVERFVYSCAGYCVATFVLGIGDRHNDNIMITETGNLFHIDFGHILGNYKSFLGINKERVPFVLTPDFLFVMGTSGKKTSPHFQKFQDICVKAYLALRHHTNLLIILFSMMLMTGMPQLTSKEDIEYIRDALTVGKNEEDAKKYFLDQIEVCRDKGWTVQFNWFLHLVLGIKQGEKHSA

IC50 [1]	IC50 [2]	IC50 [3]	SMILES
≤ 100 nM	1000 to 5000 nM	≤ 500 nM	Cc1n[nH]cc1-c1ccnc(-c2ncc(-c3ccccc3)[nH]2)c1 [Example 9, 4-(3-Methyl-1H-pyrazol-4-yl)-2-(5-phenyl-1H-imidazol-2-yl)pyridine trifluoroacetate salt]
≤ 500 nM	1000 to 5000 nM	≤ 500 nM	CCn1cc(-c2ccnc(-c3ncc(-c4ccccc4)[nH]3)c2)cn1 [Example 10, 4-(1-Ethyl-1H-pyrazol-4-yl)-2-(5-phenyl-1H-imidazol-2-yl)pyridine trifluoroacetate salt]
≤ 50 nM	300 to 1000 nM	≤ 50 nM	CC(=O)Nc1cncc(-c2ccnc(-c3ncc(-c4ccccc4)[nH]3)c2)c1 [Example 17, N-(2′-(5-Phenyl-1H-imidazol-2-yl)-3,4′-bipyridin-5-yl)acetamide trifluoroacetate salt]
≤ 50 nM	300 to 1000 nM	≤ 50 nM	c1ccc(-c2cnc(-c3cc(-c4cncc(N5CCOCC5)c4)ccn3)[nH]2)cc1 [Example 18, 4-(2′-(5-Phenyl-1H-imidazol-2-yl)-3,4′-bipyridin-5-yl)morpholine trifluoroacetate salt]
≤ 50 nM	1000 to 5000 nM	≤ 50 nM	COc1cncc(-c2ccnc(-c3ncc(-c4ccccc4)[nH]3)c2)c1 [Example 19, 5-Methoxy2′-(5-phenyl-1H-imidazol-2-yl)-3,4′-bipyridin trifluoroacetate salt]
≤ 50 nM	≤ 300 nM	≤ 50 nM	CS(=O)(=O)c1cncc(-c2ccnc(-c3ncc(-c4ccccc4)[nH]3)c2)c1 [Example 40, 5-(Methylsulfonyl)-2′-(5-phenyl-1H-imidazol-2-yl)-3,4′-bipyridine trifluoroacetate salt]
≤ 500 nM	> 5000 nM	> 500 nM	N#Cc1ccc(Cn2cc(-c3ccnc(-c4ncc(-c5ccccc5)[nH]4)c3)cn2)cc1 [Example 43, 4-((4-(2-(5-Phenyl-1H-imidazol-2-yl)pyridin-4-yl)-1H-pyrazol-1-yl)methyl)benzonitrile trifluoroacetate salt]
≤ 100 nM	> 5000 nM	≤ 500 nM	O=S(=O)(C1CC1)n1cc(-c2ccnc(-c3ncc(-c4ccccc4)[nH]3)c2)cn1 [Example 46, 4-(1-(Cyclopropylsulfonyl)-1H-pyrazol-4-yl)-2-(5-phenyl-1H-imidazol-2-yl)pyridine trifluoroacetate salt]
≤ 100 nM	> 5000 nM	≤ 100 nM	O=S(=O)(C1CCCC1)n1cc(-c2ccnc(-c3ncc(-c4ccccc4)[nH]3)c2)cn1 [Example 54, 4-(1-(Cyclopentylsulfonyl)-1H-pyrazol-4-yl)-2-(5-phenyl-1H-imidazol-2-yl)pyridine trifluoroacetate salt]
≤ 100 nM	≤ 300 nM	≤ 100 nM	N#CCn1cc(-c2ccnc(-c3ncc(-c4ccccc4)[nH]3)c2)cn1 [Example 56, 2-(4-(2-(5-Phenyl-1H-imidazol-2-yl)pyridin-4-yl)-1H-pyrazol-1-yl)acetonitrile trifluoroacetate salt]
≤ 100 nM	> 5000 nM	> 500 nM	CCNc1ncc(-c2cc(-c3cncc(OC)c3)ccn2)[nH]1 [Example 62, N-Ethyl-5-(5-methoxy-3,4′-bipyridin-2′-yl)-1H-imidazol-2-amine Trifluoroacetate Salt]
≤ 500 nM	> 5000 nM	> 500 nM	CCCCCNc1ncc(-c2cc(-c3cncc(OC)c3)ccn2)[nH]1 [Example 63, 5-(5-Methoxy-3,4′-bipyridin-2′-yl)-N-pentyl-1H-imidazol-2-amine trifluoroacetate salt]
≤ 500 nM	> 5000 nM	> 500 nM	COc1cncc(-c2ccnc(-c3cnc(NCC4CCC4)[nH]3)c2)c1 [Example 65, N-(Cyclobutylmethyl)-5-(5-methoxy-3,4′-bipyridin-2′-yl)-1H-imidazol-2-amine trifluoroacetate salt]
≤ 500 nM	> 5000 nM	> 500 nM	CCCCNc1nnc(-c2cc(-c3cncc(OC)c3)ccn2)[nH]1 [Example 66, N-Butyl-5-(5-methoxy-3,4′-bipyridin-2′-yl)-4H-1,2,4-triazol-3-amine Trifluoroacetate Salt]
≤ 500 nM	> 5000 nM	≤ 500 nM	COc1cncc(-c2ccnc(-c3nnc(NC(C)C)[nH]3)c2)c1 [Example 67, N-Isopropyl-5-(5-methoxy-3,4′-bipyridin-2′-yl)-4H-1,2,4-triazol-3-amine trifluoroacetate salt]
≤ 500 nM	> 5000 nM	> 500 nM	CNc1nnc(-c2cc(-c3cncc(OC)c3)ccn2)[nH]1 [Example 68, 5-(5-Methoxy-3,4′-bipyridin-2′-yl)-N-methyl-4H-1,2,4-triazol-3-amine trifluoroacetate salt]
≤ 500 nM	> 5000 nM	≤ 500 nM	COc1cncc(-c2ccnc(-c3nnc(Nc4ccccc4)[nH]3)c2)c1 [Example 70, 5-(5-Methoxy-3,4′-bipyridin-2′-yl)-N-phenyl-4H-1,2,4-triazol-3-amine trifluoroacetate salt]
≤ 500 nM	> 5000 nM	≤ 500 nM	COc1cncc(-c2ccnc(-c3nnc(-c4ccccc4)[nH]3)c2)c1 [Example 71, 5-Methoxy-2′-(5-phenyl-4H-1,2,4-triazol-3-yl)-3,4′-bipyridine]
≤ 50 nM	> 5000 nM	≤ 50 nM	COc1cncc(-c2ccnc(-c3cnc(-c4ccccc4)[nH]3)c2)c1 [Example 74, 5-Methoxy-2′-(2-phenyl-1H-imidazol-5-yl)-3,4′-bipyridine]
≤ 50 nM	300 to 1000 nM	≤ 100 nM	COc1cncc(-c2ccnc(-c3nc(C)c(C)[nH]3)c2)c1 [Example 76, 2′-(4,5-Dimethyl-1H-imidazol-2-yl)-5-methoxy-3,4′-bipyridine]
≤ 50 nM	300 to 1000 nM	≤ 500 nM	COc1cncc(-c2ccnc(-c3ncc(C)[nH]3)c2)c1 [Example 77, 5-Methoxy-2′-(5-methyl-1H-imidazol-2-yl)-3,4′-bipyridine]
≤ 50 nM	> 5000 nM	≤ 500 nM	COc1cncc(-c2ccnc(-c3ncc(C(F)(F)F)[nH]3)c2)c1 [Example 79, 5-Methoxy-2′-(5-(trifluoromethyl)-1H-imidazol-2-yl)-3,4′-bipyridine trifluoroacetate salt]
≤ 50 nM	> 5000 nM	≤ 50 nM	COc1cncc(-c2ccnc(-c3nc(C)c(-c4ccccc4)[nH]3)c2)c1 [Example 82, 5-Methoxy-2′-(4-methyl-5-phenyl-1H-imidazol-2-yl)-3,4′-bipyridine trifluoroacetate salt]
≤ 50 nM	> 5000 nM	≤ 50 nM	COc1cncc(-c2ccnc(-c3ncc(-c4ccc(S(=O)(=O)N(C)C)cc4)[nH]3)c2)c1 [Example 83, 4-(2-(5-Methoxy-3,4′-bipyridin-2′-yl)-1H-imidazol-5-yl)-N,N-dimethylbenzenesulfonamide trifluoroacetate salt]
≤ 100 nM	1000 to 5000 nM	≤ 500 nM	COc1cncc(-c2ccnc(-c3ncc(C(C)C)[nH]3)c2)c1 [Example 84, 2′-(5-Isopropyl-1H-imidazol-2-yl)-5-methoxy-3,4′-bipyridine trifluoroacetate salt]
